Test results as given in patent US7176185B2, “Short peptide carrier system for cellular delivery of agent” (TSRL, Inc., priority 2003, dated 2007).

Columns and labels:
[1] = biological target: T1, hpept1 dipeptide transporter (Homo sapiens, UniProt P46059); assay: Inhibition of 3H-Gly-Sar uptake in DC5 cell line (Ki determination); format: cell-based; conditions: 50 uM 3H-Gly-Sar, 10 min, 37° C., unit inferred, mM, read-out: TSRL - Ki
T1 construct: expressed in transfected cells; host or cells: DC5 = human medulloblastoma cell line Dpar transfected with a eukaryotic expression plasmid holding the hPept1 gene
T1 sequence (P46059 1-708): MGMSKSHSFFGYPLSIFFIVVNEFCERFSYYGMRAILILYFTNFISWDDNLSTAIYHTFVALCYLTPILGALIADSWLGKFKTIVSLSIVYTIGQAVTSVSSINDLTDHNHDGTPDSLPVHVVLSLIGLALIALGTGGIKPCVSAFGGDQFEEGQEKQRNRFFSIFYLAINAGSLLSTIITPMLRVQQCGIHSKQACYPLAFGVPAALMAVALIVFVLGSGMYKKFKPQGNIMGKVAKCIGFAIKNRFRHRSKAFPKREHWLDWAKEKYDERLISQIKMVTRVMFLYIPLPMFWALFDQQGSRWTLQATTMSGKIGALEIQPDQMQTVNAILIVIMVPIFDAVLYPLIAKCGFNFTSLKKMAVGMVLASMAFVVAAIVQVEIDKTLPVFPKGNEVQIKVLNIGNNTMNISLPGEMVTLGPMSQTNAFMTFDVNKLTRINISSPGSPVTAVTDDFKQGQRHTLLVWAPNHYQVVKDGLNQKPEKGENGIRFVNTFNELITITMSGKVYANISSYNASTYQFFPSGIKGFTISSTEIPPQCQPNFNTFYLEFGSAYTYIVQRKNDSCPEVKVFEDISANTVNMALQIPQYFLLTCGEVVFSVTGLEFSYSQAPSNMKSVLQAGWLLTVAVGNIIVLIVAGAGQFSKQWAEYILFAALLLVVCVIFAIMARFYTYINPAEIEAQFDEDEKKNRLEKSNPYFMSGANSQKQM
Text: The developed system functions as an initial screen for interaction with the dipeptide transporter by measuring the ability of a given test compound to inhibit the uptake of the marker dipeptide ^3H-Gly-Sar. Using this system in a 96-well format, one can rapidly screen compounds for their ability to bind to the dipeptide transporter by measuring the inhibition constant (Ki) of the compound against Gly-Sar uptake. In this assay, a positive result indicates binding, but not necessarily transport. Positive results are assessed for actual transport in conventional uptake assays.
The inhibitory Ki for a given compound is determined in DC5 cell line using the radioactive substrate 3H-glycine-sarcosine (GS). DC5 cells were plated (12,000 cells/well) in 96-well tissue culture plates (Falcon) and allowed to grow for 2 days. The cells were washed once with 200 ul of uptake buffer and aspirated. The plates were cooled to 4° C. and 25 ul of uptake buffer containing 50 uM Gly-Sar (0.5 uCi/ml) was added. The uptake buffer also contained the test β-lactam antibiotic, Cefaclor, over a range of concentrations. Uptake was initiated by placing the plate in a shaker water bath (37° C.) and terminated at 10 min by rapid washing with multiple changes of 4° C. PBS (Sigma). The radioactive peptide was extracted from the cell layer with 200 ul of methanol:water (1:1) and counted in 4 ml of CytoScint ES™ scintillation cocktail (ICN). Non-linear regression analysis of the data was used to determine the IC50 using the solver function in Microsoft Excel spreadsheets.

[2] = literature value (Bretschneider et al. 1999); 'parenteral' marks drugs given parenterally; cited from earlier work
hPepT1 = biological target: T2, hPepT1 (Homo sapiens, UniProt P46059); assay: Inhibition of LALA uptake into DC5 cells by competitive substrates; format: cell-based; conditions: 30 minutes; for Inhibition of LALA uptake (FIG. 7, specificity): 25 μM LALA, 20 mM dipeptide or 40 mM amino acid
T2 construct: expressed in transfected cells; host or cells: DC5 = human medulloblastoma cell line Dpar transfected with a eukaryotic expression plasmid holding the hPept1 gene
T2 sequence (P46059 1-708): T1 sequence (P46059 1-708)
Method: After 30 minutes the cells are washed and the fluorescence measured in the cells.
DC5 and Dpar cells are incubated in transport buffer and the indicated concentrations of LALA added ? and (¦), respectively. These experiments are repeated in the presence of 20 mM Gly-Pro for DC5 (⋄) and Dpar (?). After 30 minutes, the cells are washed and processed for fluorescent determination. […] After 30 minutes the cells are washed and the fluorescence measured in the cells. […] Fluorescence imagining of LALA in DC5 cells is shown in FIG. 8, where cells on a polylysine coated slide are incubated in the transport buffer with 50 μM LALA in the presence (right image) or absence (left image) the hPepT1 competitive inhibitor Gly-Pro (20 mM) for 20 minutes at room temperature. Cells are washed with cold PBS and viewed with an inverted microscope and imaged with a digital camera, with the images being at the same magnification and exposure time.

Dpar cells = assay: LALA fluorescent uptake in parental Dpar cells; format: cell-based, human; conditions: 30 minutes, fluorescence
Method: (§1) FIG. 6 is a graph showing the uptake of LALA in DC5 and Dpar as a function of LALA concentration. DC5 and Dpar cells are incubated in transport buffer and the indicated concentrations of LALA added ? and (¦), respectively. These experiments are repeated in the presence of 20 mM Gly-Pro for DC5 ? and Dpar (?). After 30 minutes, the cells are washed and processed for fluorescent determination.
FIG. 7 is a bar graph showing specificity of LALA uptake. 25 μM of LALA is incubated in the presence 20 mM Gly-Sar ? 20 mM Gly-Pro ? 40 mM phenylalanine ? and 40 mM proline ? in either the DC5 or the Dpar, cell line. After 30 minutes the cells are washed and the fluorescence measured in the cells. […] There is minimal LALA uptake in the parental line Dpar.
(§2) […] and not Dpar specifically uptake LALA. […] After 30 minutes the cells are washed and the fluorescence measured in the cells. […] Because the marker probe is fluorescent, the system is amenable to more rapid throughput, through the use of automated fluorescent plate readers. Fluorescence imagining of LALA in DC5 cells is shown in FIG. 8, where cells on a polylysine coated slide are incubated in the transport buffer with 50 μM LALA in the presence (right image) or absence (left image) the hPepT1 competitive inhibitor Gly-Pro (20 mM) for 20 minutes at room temperature. […]

[3] = biological target: T3, DC5 cell line overexpressing HPEPT1 (Homo sapiens, UniProt P46059); assay: LALA fluorescent uptake in DC5 cells; format: cell-based; conditions: transport buffer, 30 minutes, fluorescence
T3 construct: expressed in transfected cells; host or cells: DC5 = human medulloblastoma cell line Dpar transfected with a eukaryotic expression plasmid holding the hPept1 gene
T3 sequence (P46059 1-708): T1 sequence (P46059 1-708)
Method: as §1
as §2, with “LALA. DC5 and Dpar cells are incubated in transport buffer and the indicated concentrations of LALA added ? and (¦), respectively. These experiments are repeated in the presence of 20 mM Gly-Pro for DC5 (⋄) and Dpar (?). After 30 minutes, the cells are washed and processed for fluorescent determination.” for “LALA.”

Question: With CC1=C(C(=O)O)N2C(=O)[C@@H](NC(=O)[C@H](N)c3ccc(O)cc3)[C@H]2SC1 [Cefadroxil] as the molecule, how does the Ki [1] read?
Answer: 2.7 mM

Question: And the Bioavailability [2]?
Answer: 100

Question: Which results are given for CO/N=C(\C(=O)N[C@@H]1C(=O)N2C(C(=O)O)=C(CSc3nc(=O)c(=O)[nH]n3C)CS[C@H]12)c1csc(N)n1 [Ceftriaxon]?
Answer: Ki [1]: > 20 mM; Bioavailability [2]: <5 parenteral

Question: For NCC(=O)O.O=C(O)[C@@H]1CCCN1 [Gly-Pro, Glycine-Proline], which “Inhibition of LALA uptake (FIG. 7, specificity)” value (hPepT1) is on record?
Answer: strongly inhibited

Question: And the “Inhibition of LALA uptake (FIGS. 5 and 6)” value (hPepT1; 20 mM Gly-Pro, range of LALA concentrations)?
Answer: strongly inhibited

Question: Which Ki [1] does the source give for CC(=O)OCC1=C(C(=O)O)N2C(=O)[C@@H](NC(=O)Cc3cccs3)[C@H]2SC1 [Cephalothin] here?
Answer: 11.1 mM

Question: And the Bioavailability [2]?
Answer: <5 parenteral

Question: For O=C(O)[C@@H]1CCCN1 [proline], which “Inhibition of LALA uptake (FIG. 7, specificity)” value (hPepT1) is on record?
Answer: not by amino acids

Question: For CC1=C(C(=O)O)N2C(=O)[C@@H](NC(=O)[C@H](N)C3=CCC=CC3)[C@H]2SC1 [Cephradine], which Ki [1] is on record?
Answer: 7.02 mM

Question: What about the Bioavailability [2] of the same molecule?
Answer: 100

Question: Which “Inhibition of LALA uptake (FIG. 7, specificity)” value (hPepT1) does the source give for N[C@@H](Cc1ccccc1)C(=O)O [phenylalanine] here?
Answer: not by amino acids

Question: What does the source list for Cc1c(CC(=O)NCCCCC(NC(=O)C(C)N)C(=O)O)c(=O)oc2cc(N)ccc12 [LALA, L-Ala-Lys-Nε-AMCA]?
Answer: LALA uptake in parental line Dpar (Dpar cells): minimal; LALA uptake in DC5 [3]: specifically taken up

Question: Which Ki [1] does the source give for N[C@@H](C(=O)N[C@@H]1C(=O)N2C(C(=O)O)=C(Cl)CS[C@H]12)c1ccccc1 [Cefaclor] here?
Answer: 5.39 mM

Question: And the Bioavailability [2]?
Answer: 100

Question: Which results are given for Cn1nnnc1SCC1=C(C(=O)O)N2C(=O)[C@@H](NC(=O)[C@H](O)c3ccccc3)[C@H]2SC1 [Cefamandole]?
Answer: Ki [1]: 16.4 mM; Bioavailability [2]: <1 parenteral

Question: With CO/N=C(\C(=O)N[C@@H]1C(=O)N2C(C(=O)O)=C(COC(N)=O)CS[C@H]12)c1ccco1 [Cefuroxime] as the molecule, how does the Ki [1] read?
Answer: 23.2 mM

Question: And the Bioavailability [2]?
Answer: <1 parenteral
